The source of these data is paper PMC6984391, “Anion carriers as potential treatments for cystic fibrosis: transport in cystic fibrosis cells, and additivity to channel-targeting drugs” (Chemical Science, 2019).

Test [1] relates to F508del-CFTR-YFP-FRT cells. Put plainly: Anionophore anion transport in F508del-CFTR-YFP-FRT cells. The following applies: for anion transport in control F508del-CFTR-YFP-FRT cells / additivity of anion transport to rescue of F508del-CFTR: 50 μM; for anion transport in control F508del-CFTR-YFP-FRT cells: cells grown at 37 °C; for additivity of anion transport to rescue of F508del-CFTR: 27 °C or lumacaftor rescue; for anion transport when added together with forskolin and ivacaftor: anionophore 50 μM, forskolin 10 μM, ivacaftor 1 μM. It is filed as cell-based, Fischer rat. From the text:
To learn whether anionophores are additive to small molecules that rescue disease-causing CFTR variants, we used FRT cells co-expressing F508del-CFTR, the predominant CF mutation and YFP-H148Q/I152L (F508del-CFTR-YFP-FRT cells).[28] To rescue the plasma membrane expression of F508del-CFTR, we used low temperature or the clinically-licensed CFTR corrector lumacaftor,[38],[39] while to increase its activity, we used the clinically-licensed CFTR potentiator ivacaftor.[40]
(§1) FRT cells stably expressing the halide sensor YFP-H148Q/I152L6 were generous gifts of AS Verkman (University of California, San Francisco), while CFBE41o- cells7 stably expressing YFP (YFP-CFBE cells) were a generous gift of LJV Galietta (Telethon Institute for Genetics and Medicine). YFP-FRT cells were cultured as described previously for FRT cells8 except that media contained 10% fetal bovine serum, 2 mM L-glutamine and the selection agent G418 (YFP-FRT cells, 0.5 mg ml-1; WT-CFTR-YFP-FRT cells, 0.75 mg ml-1) or zeocin […]
(F508del-CFTR-YFP-FRT cells, 0.5 mg ml-1). […]
U ml-1 penicillin and 100 mg ml-1 streptomycin. All cells were incubated at 37 °C in a humidified atmosphere with 5% CO2.
For fluorescence microplate reader studies, cells were seeded in 96-well plates and grown in culture media at 37 °C in a humidified atmosphere with 5% CO2 for 3 – 4 days until 90% confluent. To promote the plasma membrane expression of F508del-CFTR, prior to study F508del-YFP-FRT cells were either cultured at 27 °C for 24 h or treated with lumacaftor (3 µM) in YFP-FRT media containing 1% fetal bovine serum at 37 °C for 24 h. […]
(§2) Fluorescence plate reader assay […]
quenching of YFP fluorescence at 37 °C using a microplate reader following the method of Galietta et al..9 The microplate reader (model: FLUORstar Omega; BMG LABTECH Ltd., Aylesbury, UK) was equipped with a syringe pump and excitation (500 ± 10 nm) and emission (535 ± 15 nm) filters (Chroma Technology GmbH, Olching, Germany). After washing cells twice with PBS (composition (mM): 137 NaCl, 2.7 KCl, 8.1 Na2HPO4, 1.5 KH2PO4, 1 CaCl2 and 0.5 MgCl2, pH 7.40), cells were incubated with test anionophores (1 – 50 µM) or the vehicle (DMSO [0.1 – 0.5% v v-1]) in 40 µl of PBS for 10 – 120 minutes according to the experimental design. Other compounds, including forskolin, ivacaftor and channel inhibitors were added to […]
(§3) the PBS bathing cells 10 minutes prior to PBS iodide addition, whereas UTP was added to cells with the PBS iodide solution. Fluorescence was measured for 14 seconds; 2 seconds before and 12 seconds after injection of 110 µl PBS iodide solution (137 mM Cl- replaced by I-) into each well (to obtain a final concentration of I- of 100 mM).
We expressed cell fluorescence values (F) relative to the fluorescence value immediately before I- injection (F0), excluding the initial decrease, which likely represents the quenching of extracellular YFP released from cells and signal reduction accompanying the increase in solution volume bathing cells. To quantify anion transport by test anionophores, we determined the initial slope of the fluorescence decay following I - addition by fitting first order exponential functions to the last 12 seconds of each fluorescence recording. In each experim ent, n values represent the mean of two replicates and all treatments were tested at least three times using different microplates. […]
FRT cells was selected and the cells were perfused with (i) PBS for 5 minutes then (ii) PBS containing I- (10 mM) (made by preparing PBS with 127 mM NaCl to maintain osmolarity) for 5 minutes and finally (iii) PBS for 30 minutes to remove thoroughly I- from the perfusion chamber. YFP-FRT cells were repeatedly treated with I- (10 mM) and then washed with PBS […]
During all interventions, the rate of solution perfusion was 8 – 10 ml min-1; temperature was 37 °C and except for the first 15 minutes of PBS washing, no data were collected between cycles of I- perfusion and PBS […]
For cell fluorescence measurements, we used the Volocity (Improvision) data […]

The subject of a further test is WT-CFTR-YFP-FRT cells. Kind of test: Anionophore anion transport in WT-CFTR-YFP-FRT cells. It is filed as cell-based, Fischer rat. Conditions: anionophore 50 μM, CFTRinh-172 10 μM.
Description: Next, we sought to learn whether the activities of 11, 12, 15, and 19 are additive to that of CFTR. For these studies, we used FRT cells co-expressing wild-type human CFTR and YFP-H148Q/I152L (WT-CFTR-YFP-FRT cells).[28] […] This latter effect is difficult to explain and merits further investigation.
as §1, with “zeocin (F508del-CFTR-YFP-FRT cells, 0.5 mg ml-1). YFP-CFBE cells were cultured in minimal essential medium (MEM) supplemented with 10% fetal bovine serum, 2 mM L-glutamine, 100 U ml-1 penicillin and 100 mg ml-1 streptomycin.” for “zeocin”
as §2
quenching of YFP fluorescence at 37 °C using a microplate reader following the method of Galietta et al..9 The microplate reader (model: FLUORstar Omega; BMG LABTECH Ltd., Aylesbury, UK) was equipped with a syringe pump and excitation (500 ± 10 nm) and emission (535 ± 15 nm) filters (Chroma Technology GmbH, Olching, Germany). […]
as §3
We expressed cell fluorescence values (F) relative to the fluorescence value immediately before I- injection (F0), excluding the initial decrease, which likely represents the quenching of extracellular YFP released from cells and signal reduction accompanying the increase in solution volume bathing cells. […]

Regarding `FC(F)(F)c1cc(NC(=S)NCCN(CCNC(=S)Nc2cc(C(F)(F)F)cc(C(F)(F)F)c2)CCNC(=S)Nc2cc(C(F)(F)F)cc(C(F)(F)F)c2)cc(C(F)(F)F)c1` [Compound 19], in test [1], the “anion transport in control F508del-CFTR-YFP-FRT cells” value is “mediated anion transport”; the “additivity of anion transport to rescue of F508del-CFTR” value (from here on “additivity of anion transport”) is listed as “additive”; the “anion transport when added together with forskolin and ivacaftor” value (from here on “anion transport when added together”) is “increased further the amount of anion transport”. Also, the “effect of CFTRinh-172 on anion transport by anionophore” value (from here on “effect”) in the test on WT-CFTR-YFP-FRT cells was “inhibited the activity”.

In the case of `CCOC(=O)[C@]12CC[C@@H](NC(=S)Nc3ccc([N+](=O)[O-])cc3)C[C@@H]1C[C@@H](NC(=S)Nc1ccc([N+](=O)[O-])cc1)CC2` [Compound 12], in test [1], the “anion transport in control F508del-CFTR-YFP-FRT cells” value was “mediated anion transport”; the “additivity of anion transport” value is listed as “additive”; the “anion transport when added together” value is recorded as “increased further the amount of anion transport”. Further, the “effect” value in the test on WT-CFTR-YFP-FRT cells is recorded as “without effect”.

Take `CCOC(=O)[C@]12CC[C@@H](NC(=S)Nc3cc(C(F)(F)F)cc(C(F)(F)F)c3)C[C@@H]1C[C@@H](NC(=S)Nc1cc(C(F)(F)F)cc(C(F)(F)F)c1)CC2` [Compound 15]: in test [1], the “anion transport in control F508del-CFTR-YFP-FRT cells” value is “mediated anion transport”; the “additivity of anion transport” value is reported as “additive”; the “anion transport when added together” value was “increased further the amount of anion transport”. Moreover, the “effect” value in the test with WT-CFTR-YFP-FRT cells is “small, albeit significant, increase”.
